Consider 40 compounds from US10123993B2, “Cyclic ureas as inhibitors of rock” (BRISTOL-MYERS SQUIBB COMPANY, priority 2015, dated 2018).

Where a name gives a salt, the structure may show the parent alone.

Chain of ROCK2 (O75116 whole entry, species assumed): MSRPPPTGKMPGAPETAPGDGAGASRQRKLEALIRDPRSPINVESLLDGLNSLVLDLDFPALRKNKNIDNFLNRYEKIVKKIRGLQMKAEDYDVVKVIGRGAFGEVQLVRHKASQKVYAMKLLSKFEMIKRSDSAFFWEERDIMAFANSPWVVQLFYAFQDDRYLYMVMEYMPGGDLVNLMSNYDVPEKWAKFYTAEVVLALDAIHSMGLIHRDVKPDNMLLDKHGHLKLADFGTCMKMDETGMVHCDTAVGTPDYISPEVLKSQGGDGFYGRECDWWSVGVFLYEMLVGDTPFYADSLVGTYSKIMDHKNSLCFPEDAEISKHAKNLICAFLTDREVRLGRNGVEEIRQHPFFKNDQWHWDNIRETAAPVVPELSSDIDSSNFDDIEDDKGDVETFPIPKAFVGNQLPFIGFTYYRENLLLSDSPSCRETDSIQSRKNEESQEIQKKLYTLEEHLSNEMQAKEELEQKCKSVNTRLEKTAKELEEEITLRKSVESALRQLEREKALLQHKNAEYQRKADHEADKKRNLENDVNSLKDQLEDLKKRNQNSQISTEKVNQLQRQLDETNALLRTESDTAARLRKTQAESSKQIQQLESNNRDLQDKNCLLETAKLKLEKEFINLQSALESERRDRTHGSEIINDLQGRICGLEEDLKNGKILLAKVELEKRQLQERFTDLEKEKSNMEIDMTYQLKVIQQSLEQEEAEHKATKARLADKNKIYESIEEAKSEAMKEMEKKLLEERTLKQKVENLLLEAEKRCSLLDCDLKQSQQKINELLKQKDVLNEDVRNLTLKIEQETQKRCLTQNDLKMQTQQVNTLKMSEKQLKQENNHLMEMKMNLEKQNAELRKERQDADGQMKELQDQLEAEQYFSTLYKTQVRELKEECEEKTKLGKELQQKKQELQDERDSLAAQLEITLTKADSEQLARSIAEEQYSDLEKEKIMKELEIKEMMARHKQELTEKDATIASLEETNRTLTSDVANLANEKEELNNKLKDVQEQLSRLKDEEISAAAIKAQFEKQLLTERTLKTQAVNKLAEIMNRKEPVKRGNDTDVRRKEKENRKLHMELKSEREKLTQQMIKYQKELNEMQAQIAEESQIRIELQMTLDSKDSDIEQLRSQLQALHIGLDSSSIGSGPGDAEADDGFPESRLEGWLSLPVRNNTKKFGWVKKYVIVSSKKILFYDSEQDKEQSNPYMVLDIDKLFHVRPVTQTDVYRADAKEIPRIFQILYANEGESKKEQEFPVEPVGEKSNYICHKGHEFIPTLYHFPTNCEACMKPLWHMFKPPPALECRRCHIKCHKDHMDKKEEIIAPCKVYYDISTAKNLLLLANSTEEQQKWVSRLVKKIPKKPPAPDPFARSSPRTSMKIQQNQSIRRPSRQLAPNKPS

This experiment has as its target ROCK2 (Homo sapiens, UniProt O75116). Kind of experiment: ROCK2 kinase inhibition assay (Caliper LABCHIP, FITC peptide substrate). Type of experiment: biochemical. Particulars: 5 μM ATP, 1.5 μM peptide substrate; value ranges. In a few lines:
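Dose-response curves gave IC50 from inhibition of peptide phosphorylation, measured by LabChip separation after EDTA stop. Reactions used 1.5 μM FITC-labelled peptide, 5 μM ATP, 20 mM HEPES pH 7.5 with MgCl2, Brij-35, DTT, and under 2% DMSO.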
By IC50 is commonly meant the concentration that gives 50% inhibition. Read a low IC50 as greater potency in that assay. `COc1cccc(CN2CC(=O)N(c3ccc(-c4cn[nH]c4)cc3)C2=O)c1` [Example 80, 3-(4-(1H-Pyrazol-4-yl)phenyl)-1-(3-methoxybenzyl)imidazolidine-2,4-dione] returned a concentration for half-maximal inhibition (IC50) of 20.1 to 200 nM. With `O=C1CN(Cc2cccc(F)c2)C(=O)N1c1ccc(-c2cn[nH]c2)cc1` [Example 81, 3-(4-(1H-pyrazol-4-yl)phenyl)-1-(3-fluorobenzyl)imidazolidine-2,4-dione] the figure was 200 to 2000 nM; with `O=C1CN(Cc2ccccc2Cl)C(=O)N1c1ccc(-c2cn[nH]c2)cc1` [Example 82, 3-(4-(1H-pyrazol-4-yl)phenyl)-1-(2-chlorobenzyl)imidazolidine-2,4-dione], 20.1 to 200 nM; with `O=C1CN(Cc2cc(F)ccc2F)C(=O)N1c1ccc(-c2cn[nH]c2)cc1` [Example 83, 3-(4-(1H-pyrazol-4-yl)phenyl)-1-(2,5-difluorobenzyl)imidazolidine-2,4-dione], 200 to 2000 nM. For `COc1cc(F)cc(CN2CC(=O)N(c3ccc(-c4cn[nH]c4)cc3)C2=O)c1` [Example 84, 3-(4-(1H-pyrazol-4-yl)phenyl)-1-(3-fluoro-5-methoxybenzyl)imidazolidine-2,4-dione], the IC50 was 20.1 to 200 nM. With `O=C1CN(CCc2ccccc2)C(=O)N1c1ccc(-c2cn[nH]c2)cc1` [Example 85, 3-(4-(1H-pyrazol-4-yl)phenyl)-1-phenethylimidazolidine-2,4-dione] the figure was 200 to 2000 nM; with `O=C1CN(Cc2ccccc2F)C(=O)N1c1ccc(-c2cn[nH]c2)cc1` [Example 86, 3-(4-(1H-pyrazol-4-yl)phenyl)-1-(2-fluorobenzyl)imidazolidine-2,4-dione], 200 to 2000 nM. The compound `O=C1CN(Cc2ccccc2)C(=O)N1c1ccc(-c2cn[nH]c2)cc1` [Example 87, 3-(4-(1H-pyrazol-4-yl)phenyl)-1-benzylimidazolidine-2,4-dione] displayed an IC50 of 200 to 2000 nM. With `COc1cc(N2C(=O)CN(Cc3ccccc3)C2=O)ccc1-c1cn[nH]c1` [Example 88, 1-benzyl-3-(3-methoxy-4-(1H-pyrazol-4-yl)phenyl)imidazolidine-2,4-dione], the IC50 was in the range of 200 to 2000 nM. On to `COc1cc(N2C(=O)CN(Cc3ccccc3Cl)C2=O)ccc1-c1cn[nH]c1` [Example 89, 1-(2-chlorobenzyl)-3-(3-methoxy-4-(1H-pyrazol-4-yl)phenyl)imidazolidine-2,4-dione], for which the IC50 lay within 200 to 2000 nM. With `COc1cc(N2C(=O)CN(Cc3cccc(F)c3)C2=O)ccc1-c1cn[nH]c1` [Example 90, 1-(3-fluorobenzyl)-3-(3-methoxy-4-(1H-pyrazol-4-yl)phenyl)imidazolidine-2,4-dione] the figure was 20.1 to 200 nM; with `COc1cc(N2C(=O)CN(Cc3ccccc3F)C2=O)ccc1-c1cn[nH]c1` [Example 91, 1-(2-fluorobenzyl)-3-(3-methoxy-4-(1H-pyrazol-4-yl)phenyl)imidazolidine-2,4-dione, TFA], 200 to 2000 nM.

Compound `COc1cc(N2C(=O)CN(Cc3cc(F)ccc3F)C2=O)ccc1-c1cn[nH]c1` [Example 92, 1-(2,5-difluorobenzyl)-3-(3-methoxy-4-(1H-pyrazol-4-yl)phenyl)imidazolidine-2,4-dione, TFA] displayed an IC50 of 200 to 2000 nM. Regarding `COc1cccc(CN2CC(=O)N(c3ccc(-c4cn[nH]c4)c(OC)c3)C2=O)c1` [Example 93, 3-(3-methoxy-4-(1H-pyrazol-4-yl)phenyl)-1-(3-methoxybenzyl)imidazolidine-2,4-dione, TFA], the IC50 lay within 20.1 to 200 nM.

`COc1cc(F)cc(CN2CC(=O)N(c3ccc(-c4cn[nH]c4)c(OC)c3)C2=O)c1` [Example 94, 1-(3-fluoro-5-methoxybenzyl)-3-(3-methoxy-4-(1H-pyrazol-4-yl)phenyl)imidazolidine-2,4-dione, TFA] had an IC50 of 20.1 to 200 nM. Compound `CC(c1ccccc1)N1CC(=O)N(c2ccc(-c3cn[nH]c3)cc2)C1=O` (stereo not shown) [Example 95, 3-(4-(1H-pyrazol-4-yl)phenyl)-1-(1-phenylethyl)imidazolidine-2,4-dione] displayed an IC50 of 20.1 to 200 nM. For the compound `COc1cc(N2C(=O)CN(C(C)c3ccccc3)C2=O)ccc1-c1cn[nH]c1` (stereo not shown) [Example 96, 3-(3-methoxy-4-(1H-pyrazol-4-yl)phenyl)-1-(1-phenylethyl)imidazolidine-2,4-dione], the IC50 lay within 200 to 2000 nM. To `COc1cc(N2C(=O)CN(CCc3ccccc3)C2=O)ccc1-c1cn[nH]c1` [Example 97, 3-(3-methoxy-4-(1H-pyrazol-4-yl)phenyl)-1-phenethylimidazolidine-2,4-dione] belongs 200 to 2000 nM; to `COc1cc(N2CC(=O)N(Cc3ccccc3)C2=O)ccc1-c1cn[nH]c1` [Example 98, 3-Benzyl-1-(3-methoxy-4-(1H-pyrazol-4-yl)phenyl)imidazolidine-2,4-dione], 20.1 to 200 nM. To `COc1cc(N2CC(=O)N(Cc3ccccc3F)C2=O)ccc1-c1cn[nH]c1` [Example 99, 3-(2-fluorobenzyl)-1-(3-methoxy-4-(1H-pyrazol-4-yl)phenyl)imidazolidine-2,4-dione] belongs 20.1 to 200 nM. Regarding `COc1cc(N2CC(=O)N(Cc3cccc(F)c3)C2=O)ccc1-c1cn[nH]c1` [Example 100, 3-(3-fluorobenzyl)-1-(3-methoxy-4-(1H-pyrazol-4-yl)phenyl)imidazolidine-2,4-dione], the half-inhibitory concentration (IC50) lay within 20.1 to 200 nM. `COc1cc(F)cc(CN2C(=O)CN(c3ccc(-c4cn[nH]c4)c(OC)c3)C2=O)c1` [Example 101, 3-(3-fluoro-5-methoxybenzyl)-1-(3-methoxy-4-(1H-pyrazol-4-yl)phenyl) imidazolidine-2,4-dione] came in with an IC50 of 2.1 to 20 nM. `COc1cc(N2CC(=O)N(Cc3c(F)cccc3F)C2=O)ccc1-c1cn[nH]c1` [Example 102, 3-(2,6-difluoro-benzyl)-1-(3-methoxy-4-(1H-pyrazol-4-yl)phenyl) imidazolidine-2,4-dione] gave an IC50 of 20.1 to 200 nM. With `COc1cc(N2CC(=O)N(CCc3ccccc3)C2=O)ccc1-c1cn[nH]c1` [Example 103, 1-(3-methoxy-4-(1H-pyrazol-4-yl)phenyl)-3-phenethylimidazolidine-2,4-dione], the IC50 was in the range of 20.1 to 200 nM. In the case of `COc1cc(N2CC(=O)N(Cc3ccccc3Cl)C2=O)ccc1-c1cn[nH]c1` [Example 104, 3-(2-chlorobenzyl)-1-(3-methoxy-4-(1H-pyrazol-4-yl)phenyl)imidazolidine-2,4-dione], the IC50 fell in the range of 20.1 to 200 nM. To `COc1cccc(CN2C(=O)CN(c3ccc(-c4cn[nH]c4)c(OC)c3)C2=O)c1` [Example 105, 1-(3-methoxy-4-(1H-pyrazol-4-yl)phenyl)-3-(3-methoxy-benzyl)imidazolidine-2,4-dione] belongs 2.1 to 20 nM. As to `COc1cc(N2CC(=O)N(C(C)c3ccccc3)C2=O)ccc1-c1cn[nH]c1` (stereo not shown) [Example 106, 1-(3-methoxy-4-(1H-pyrazol-4-yl)phenyl)-3-(1-phenylethyl) imidazolidine-2,4-dione], the IC50 fell in the range of 20.1 to 200 nM. In the case of `COc1cc(F)cc(CN2C(=O)CN(c3ccc(-c4cn[nH]c4)cc3)C2=O)c1` [Example 107, 1-(4-(1H-pyrazol-4-yl)phenyl)-3-(3-fluoro-5-methoxy-benzyl)imidazolidine-2,4-dione], the IC50 fell in the range of 2.1 to 20 nM. Take `O=C1CN(c2ccc(-c3cn[nH]c3)cc2)C(=O)N1Cc1c(F)cccc1F` [Example 108, 1-(4-(1H-pyrazol-4-yl)phenyl)-3-(2,6-difluorobenzyl) imidazolidine-2,4-dione]: the IC50 was 200 to 2000 nM. For the compound `CC(c1ccccc1)N1C(=O)CN(c2ccc(-c3cn[nH]c3)cc2)C1=O` (stereo not shown) [Example 109, 1-(4-(1H-pyrazol-4-yl)phenyl)-3-(1-phenylethyl) imidazolidine-2,4-dione], the IC50 was in the range of 200 to 2000 nM.

The compound `O=C1CN(c2ccc(-c3cn[nH]c3)cc2)C(=O)N1Cc1ccccc1` [Example 110, 1-(4-(1H-pyrazol-4-yl)phenyl)-3-benzyl-imidazolidine-2,4-dione] registered an IC50 of 20.1 to 200 nM.

The compound `O=C1CN(c2ccc(-c3cn[nH]c3)cc2)C(=O)N1Cc1ccccc1Cl` [Example 111, 1-(4-(1H-pyrazol-4-yl)phenyl)-3-(2-chlorobenzyl) imidazolidine-2,4-dione] showed an IC50 of 2.1 to 20 nM. As for `COc1cccc(CN2C(=O)CN(c3ccc(-c4cn[nH]c4)cc3)C2=O)c1` [Example 112, 1-(4-(1H-pyrazol-4-yl)phenyl)-3-(3-methoxybenzyl) imidazolidine-2,4-dione], the IC50 was < 2 nM. For the compound `O=C1CN(c2ccc(-c3cn[nH]c3)cc2)C(=O)N1CCc1ccccc1` [Example 113, 1-(4-(1H-pyrazol-4-yl)phenyl)-3-phenethyl-imidazolidine-2,4-dione], the IC50 fell in the range of 20.1 to 200 nM.

On to `O=C1CN(c2ccc(-c3cn[nH]c3)cc2)C(=O)N1Cc1cccc(F)c1` [Example 114, 1-(4-(1H-pyrazol-4-yl)phenyl)-3-(3-fluoro-benzyl)imidazolidine-2,4-dione], for which the IC50 lay within 20.1 to 200 nM.

`O=C1CN(c2ccc(-c3cn[nH]c3)cc2)C(=O)N1Cc1cc(F)ccc1F` [Example 115, 1-(4-(1H-pyrazol-4-yl)phenyl)-3-(2,5-difluorobenzyl) imidazolidine-2,4-dione] came in with an IC50 of 20.1 to 200 nM. With `COc1cccc(CN2CCN(c3ccc(-c4cn[nH]c4)cc3)C2=O)c1F` [Example 116, 1-(4-(1H-Pyrazol-4-yl)phenyl)-3-(2-fluoro-3-methoxybenzyl)imidazolidin-2-one] the figure was 20.1 to 200 nM; with `COc1ccc(CN2CCN(c3ccc(-c4cn[nH]c4)cc3)C2=O)cc1F` [Example 117, 1-(4-(1H-pyrazol-4-yl)phenyl)-3-(3-fluoro-4-methoxybenzyl)imidazolidin-2-one], 200 to 2000 nM. Take `COc1cc(F)cc(CN2CCN(c3ccc(-c4cn[nH]c4)cc3)C2=O)c1` [Example 118, 1-(4-(1H-pyrazol-4-yl)phenyl)-3-(3-fluoro-5-methoxybenzyl)imidazolidin-2-one]: the IC50 is < 2 nM. Compound `COc1ccc(F)cc1CN1CCN(c2ccc(-c3cn[nH]c3)cc2)C1=O` [Example 119, 1-(4-(1H-pyrazol-4-yl)phenyl)-3-(5-fluoro-2-methoxybenzyl)imidazolidin-2-one] came in with an IC50 of 20.1 to 200 nM.
